Results from PubChem BioAssay AID316 (DTP/NCI, 2004).
“And” between values parts separate entries of the source, which are not always exact repeats. Equal values may be shown once. Inconclusive results and toxic doses are left out.

Test system: P1534 leukemia ip, CD2F1 mice, survival T/C
Test: NCI In Vivo Anticancer Drug Screen. Data for tumor model P1534 Leukemia (intraperitoneal) in CD2F1 (CDF1) mice
Conditions: endpoint: mean survival time, higher = longer survival
Procedure: The antitumor activity of compounds was measured in mice bearing transplantable tumors. Survival or tumor size were measured and the results are expressed as the measurement made in the treated group (T) divided by the measurement made in the vehicle treated control group (C). The tumor model used in this assay is P1534 Leukemia (intraperitoneal) in CD2F1 (CDF1) mice

[1] = dose: 25.0 mg/kg/injection, schedule: Q01DX010 (ip), vehicle: saline
[2] = dose: 50.0 mg/kg/injection, schedule: Q01DX010 (ip), vehicle: saline
[3] = dose: 100.0 mg/kg/injection, schedule: Q01DX010 (ip), vehicle: saline
[4] = dose: 200.0 mg/kg/injection, schedule: Q01DX010 (ip), vehicle: saline
[5] = dose: 10.0 mg/kg/injection, schedule: Q01DX010 (ip), vehicle: saline
[6] = dose: 20.0 mg/kg/injection, schedule: Q01DX010 (ip), vehicle: saline
[7] = dose: 40.0 mg/kg/injection, schedule: Q01DX010 (ip), vehicle: saline
[8] = dose: 80.0 mg/kg/injection, schedule: Q01DX010 (ip), vehicle: saline
[9] = dose: 12.5 mg/kg/injection, schedule: Q01DX010 (ip), vehicle: saline
[10] = dose: 1.5 mg/kg/injection, schedule: Q01DX010 (ip), vehicle: saline
[11] = dose: 3.0 mg/kg/injection, schedule: Q01DX010 (ip), vehicle: saline

CC(=O)OCC1OC(n2ncc(=O)[nH]c2=O)C(OC(C)=O)C1OC(C)=O (stereo not drawn)
T/C (dose: 300.0 mg/kg/injection, schedule: Q01DX010 (ip), vehicle: saline): 89 % of control
T/C (dose: 450.0 mg/kg/injection, schedule: Q01DX010 (ip), vehicle: saline): 96 % of control
T/C (dose: 675.0 mg/kg/injection, schedule: Q01DX010 (ip), vehicle: saline): 100 % of control

Cc1cc2nc3c(=O)[nH]c(=O)nc-3n(CC(O)C(O)C(O)C(O)CO)c2cc1C (stereo not drawn)
T/C [1]: 111 % of control
T/C [2]: 107 % of control and 100 % of control
T/C [3]: 107 % of control and 111 % of control
T/C [4]: 111 % of control

COc1ccc(Cc2nccc3cc(OC)c(OC)cc23)cc1OC
T/C [5]: 100 % of control
T/C [6]: 100 % of control
T/C [7]: 100 % of control
T/C [8]: 100 % of control

COc1ccc2c3c(c4cc(OC)c(OC)cc4c2c1)C[C@H]1CCCCN1C3
T/C (dose: 0.3 mg/kg/injection, schedule: Q01DX010 (ip), vehicle: saline): 100 % of control
T/C (dose: 0.5 mg/kg/injection, schedule: Q01DX010 (ip), vehicle: saline): 113 % of control

NC(=O)c1cn[nH]c1N
T/C (dose: 100.0 mg/kg/injection, schedule: Q01DX010 (ip), vehicle: water): 100 % of control
T/C (dose: 200.0 mg/kg/injection, schedule: Q01DX010 (ip), vehicle: water): 93 % of control

NC(N)=NCCCC(N)C(=O)NCCCCCCNCCCCCCNC(=O)C(N)CCCN=C(N)N (stereo not drawn)
T/C (dose: 5.0 mg/kg/injection, schedule: Q01DX010 (ip), vehicle: saline): 107 % of control
T/C [5]: 96 % of control
T/C [6]: 100 % of control

C[C@H]1/C(=C/C(=O)OCCN(C)C)CC[C@H]2[C@H]1C(=O)C[C@H]1C(C)(C)[C@@H](O)CC[C@]21C
T/C (dose: 4.0 mg/kg/injection, schedule: Q01DX010 (ip), vehicle: saline): 96 % of control
T/C (dose: 8.0 mg/kg/injection, schedule: Q01DX010 (ip), vehicle: saline): 113 % of control

CC(=O)O[C@]1(C(C)=O)CC[C@H]2[C@@H]3C[C@H](C)C4=CC(=O)C=C[C@]4(C)[C@@]3(F)[C@@H](O)C[C@@]21C
T/C (dose: 12.5 mg/kg/injection, schedule: Q01DX010 (sc), vehicle: steriod suspending solution): 103 % of control
T/C (dose: 25.0 mg/kg/injection, schedule: Q01DX010 (sc), vehicle: steriod suspending solution): 92 % of control

O=C(NCCCCC(NC(=O)OCc1ccccc1)C(=O)NCCCCCCNCCCCCCNC(=O)C(CCCCNC(=O)OCc1ccccc1)NC(=O)OCc1ccccc1)OCc1ccccc1 (stereo not drawn)
T/C [9]: 107 % of control
T/C [1]: 114 % of control
T/C [2]: 114 % of control

CC[C@]12CN3CCc4c([nH]c5ccccc45)[C@@](C(=O)OC)(c4cc5c(cc4OC)N(C)[C@H]4[C@@](O)(C(=O)OC)[C@H](OC(C)=O)[C@]6(CC)C=CCN7CC[C@]54[C@@H]76)CC(C3)[C@H]1O2 (stereo partly drawn)
T/C [10]: 182 % of control
T/C [11]: 260 % of control
T/C (dose: 94.0 micrograms/kg/injection, schedule: Q01DX010 (ip), vehicle: saline): 96 % of control
T/C (dose: 188.0 micrograms/kg/injection, schedule: Q01DX010 (ip), vehicle: saline): 103 % of control
T/C (dose: 375.0 micrograms/kg/injection, schedule: Q01DX010 (ip), vehicle: saline): 123 % of control

CC(O)CCc1ccc(OC(=O)c2ccccc2)cc1 (stereo not drawn)
T/C [2]: 89 % of control
T/C [3]: 93 % of control
T/C [4]: 89 % of control
T/C (dose: 400.0 mg/kg/injection, schedule: Q01DX010 (ip), vehicle: saline): 93 % of control

CN(C)c1ccc(C(N)=O)cn1
T/C [10]: 115 % of control
T/C [11]: 123 % of control

O=C(CCCNC(=O)OCc1ccccc1)NCCCCCCCCCCNC(=O)CCCNC(=O)OCc1ccccc1
T/C [2]: 89 % of control
T/C [3]: 89 % of control

COC(=O)C1=COC(C)C2CN3CCc4c([nH]c5ccccc45)C3CC12 (stereo not drawn)
T/C [6]: 96 % of control
T/C [7]: 93 % of control
T/C [8]: 96 % of control

NCCCC(N)C(=O)NCCCCCCNCCCCCCNC(=O)C(N)CCCN (stereo not drawn)
T/C [9]: 100 % of control
T/C [1]: 92 % of control
T/C [2]: 100 % of control
T/C [3]: 96 % of control

C[C@@H]1CCC([C@@H](C)[C@H]2CC[C@H]3[C@@H]4CC[C@H]5C[C@@H](O)CC[C@]5(C)[C@H]4CC[C@]23C)=NC1
T/C [9]: 107 % of control
T/C [1]: 103 % of control
T/C [2]: 100 % of control
T/C [3]: 100 % of control

Nc1ncnc2[nH]ncc12
T/C [10]: 100 % of control
T/C [11]: 110 % of control and 100 % of control
T/C (dose: 6.0 mg/kg/injection, schedule: Q01DX010 (ip), vehicle: saline): 120 % of control and 100 % of control
T/C (dose: 12.0 mg/kg/injection, schedule: Q01DX010 (ip), vehicle: saline): 115 % of control and 95 % of control
